What was measured:
[1] = system: differentiated L6-myotubes; assay: cAMP production relative to isoprenaline (Biological example 2 of WO 2019/053427); type: cell-based; conditions: 0.25 h, compound at 10 μM, activity relative to isoproterenol at 10 μM
In short: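 Values are cAMP levels relative to isoprenaline at equal concentration (final 1×10^−5 M for both). Stimulation lasted 15 min in differentiated L6 myotubes, using HBSS buffer (pH 7.4) containing 1 mM IBMX, 5 mM HEPES and 1% BSA.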

[2] = system: differentiated L6-myotubes; assay: Glucose uptake screen (Biological example 1 of WO 2019/053427); type: cell-based; conditions: compound at 10 μM, activity relative to isoproterenol at 10 μM, read-out: Biological example 1 of WO 2019/053427 (GU)
In short: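 Uptake was read out as ^3H-2-deoxyglucose (50 nM, 10 min) radioactivity in NaOH lysates. Beforehand, overnight-starved, differentiated L6 myotubes received compound at 1×10^−5 M with ICI-118551 present for 1 h 40 min, followed by fresh agonist for a further 20 min in glucose-free medium.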

Row | Structure (SMILES) | Emax at 10 µM [1] [%] | Emax at 10 µM [2] [%]
1 | CCC[C@H]1CCCC[C@@H]([C@H](O)c2cncc(F)c2)N1 [Compound 234, (R)-[(2S,7S)-7-propyl-2-azepanyl](5-fluoro-3-pyridyl)methanol] | < 25 | > 75
2 | CCC[C@H]1CCCC[C@@H]([C@@H](O)c2cncc(F)c2)N1 [Compound 235, (S)-[(2S,7S)-7-propyl-2-azepanyl](5-fluoro-3-pyridyl)methanol] | < 25 | < 25
3 | CC1(C)CC[C@H]([C@@H](O)c2cc(F)c(N)c(F)c2)N1 [Compound 236, (S)-[(R)-5,5-dimethyl-2-pyrrolidinyl](4-amino-3,5-difluorophenyl)methanol] | 25 to 50 | > 75
4 | CO[C@H]1CC[C@@H](CCNC[C@H](O)c2cccc(F)c2)CC1 [Compound 237, (R)-1-(m-fluorophenyl)-2-{2-[(1s,4S)-4-methoxycyclohexyl]ethyl-amino}-1-ethanol] | < 25 | 50 to 75
5 | CO[C@H]1CC[C@@H](CCNC[C@H](O)c2cncc(F)c2)CC1 [Compound 238, (R)-1-(5-fluoro-3-pyridyl)-2-{2-[(1s,4S)-4-methoxycyclohexyl]ethyl-amino}-1-ethanol] | < 25 | > 75
6 | CO[C@H]1CC[C@H](C(C)(C)NC[C@H](O)c2cccc(F)c2)CC1 [Compound 239, (R)-1-(m-fluorophenyl)-2-{1-methyl-1-[(1r,4R)-4-methoxycyclohexyl]ethyl-amino}-1-ethanol] | < 25 | > 75
7 | CO[C@H]1CC[C@H](C(C)(C)NC[C@H](O)c2cncc(F)c2)CC1 [Compound 240, (R)-1-(5-fluoro-3-pyridyl)-2-{1-methyl-1-[(1r,4R)-4-methoxycyclohexyl]ethyl-amino}-1-ethanol] | < 25 | > 75
8 | CC12CC(C1)[C@H]([C@H](O)c1cccc(N)c1F)N2 [Compound 241, (R)-{(R)-1-methyl-2-azabicyclo[2.1.1]hex-3-yl}(3-amino-2-fluorophenyl)methanol] | < 25 | > 75
9 | CC12CC(C1)[C@@H]([C@@H](O)c1cccc(N)c1F)N2 [Compound 242, (S)-{(S)-1-methyl-2-azabicyclo[2.1.1]hex-3-yl}(3-amino-2-fluorophenyl)methanol] | < 25 | 50 to 75
10 | CC12CC(C1)[C@H]([C@@H](O)c1cccc(N)c1F)N2 [Compound 243, (S)-{(R)-1-methyl-2-azabicyclo[2.1.1]hex-3-yl}(3-amino-2-fluorophenyl)methanol] | < 25 | 50 to 75
11 | CC12CC(C1)[C@@H]([C@H](O)c1cccc(N)c1F)N2 [Compound 244, (R)-{(S)-1-methyl-2-azabicyclo[2.1.1]hex-3-yl}(3-amino-2-fluorophenyl)methanol] | < 25 | 50 to 75
12 | CO[C@H]1CC[C@@H](CNC[C@H](O)c2cccc(F)c2)CC1 [Compound 245, (R)-1-(m-fluorophenyl)-2-({[(1s,4S)-4-methoxycyclohexyl]meth-yl}amino)-1-ethanol] | < 25 | 50 to 75
13 | CO[C@H]1CC[C@@H](CNC[C@H](O)c2cncc(F)c2)CC1 [Compound 246, (R)-1-(5-fluoro-3-pyridyl)-2-({[(1s,4S)-4-methoxycyclohexyl]meth-yl}amino)-1-ethanol] | < 25 | 50 to 75
14 | CO[C@H]1CC[C@@H](CC(C)(C)NC[C@H](O)c2cccc(F)c2)CC1 [Compound 247, (R)-2-{1,1-dimethyl-2-[(1s,4S)-4-methoxycyclohexyl]ethyl-amino}-1-(m-fluorophenyl)-1-ethanol] | < 25 | > 75
15 | CO[C@H]1CC[C@@H](CC(C)(C)NC[C@H](O)c2cncc(F)c2)CC1 [Compound 248, (R)-2-{1,1-dimethyl-2-[(1s,4S)-4-methoxycyclohexyl]ethyl-amino}-1-(5-fluoro-3-pyridyl)-1-ethanol] | < 25 | > 75
16 | CO[C@H]1CC[C@H](CC(C)(C)NC[C@H](O)c2cccc(F)c2)CC1 [Compound 249, (R)-2-{1,1-dimethyl-2-[(1r,4R)-4-methoxycyclohexyl]ethyl-amino}-1-(m-fluorophenyl)-1-ethanol] | < 25 | > 75
17 | CO[C@H]1CC[C@H](CC(C)(C)NC[C@H](O)c2cncc(F)c2)CC1 [Compound 250, (R)-2-{1,1-dimethyl-2-[(1r,4R)-4-methoxycyclohexyl]ethyl-amino}-1-(5-fluoro-3-pyridyl)-1-ethanol] | < 25 | 50 to 75
18 | CO[C@H]1CC[C@@H](C(C)(C)NC[C@H](O)c2cccc(F)c2)CC1 [Compound 251, (R)-1-(m-fluroophenyl)-2-{1-methyl-1-[(1s,4S)-4-methoxycyclohexyl]ethyl-amino}-1-ethanol] | < 25 | < 25

Row | Structure (SMILES) | Emax at 10 µM [1] [%] | Emax at 10 µM [2] [%]
19 | CO[C@H]1CC[C@@H](C(C)(C)NC[C@H](O)c2cncc(F)c2)CC1 [Compound 252, (R)-1-(5-fluoro-3-pyridyl)-2-{1-methyl-1-[(1s,4S)-4-methoxycyclohexyl]ethyl-amino}-1-ethanol] | < 25 | < 25
20 | CC12CCC([C@@H](O)c3ccncc3F)(CC1)N2 [Compound 253, (S)-(3-fluoro-4-pyridyl)(4-methyl-7-azabicyclo[2.2.1]hept-1-yl)methanol] | < 25 | < 25
21 | CC12CCC([C@H](O)c3ccncc3F)(CC1)N2 [Compound 254, (R)-(3-fluoro-4-pyridyl)(4-methyl-7-azabicyclo[2.2.1]hept-1-yl)methanol] | < 25 | < 25
22 | CO[C@@H]1CCC[C@H](C(C)(C)NC[C@H](O)c2cccc(F)c2)C1 [Compound 255, (R)-2-{1-[(1S,3R)-3-methoxycyclohexyl]-1-methylethylamino}-1-(m-fluorophenyl)-1-ethanol] | < 25 | > 75
23 | CO[C@H]1CCC[C@@H](C(C)(C)NC[C@H](O)c2cccc(F)c2)C1 [Compound 256] | 25 to 50 | > 75
24 | CO[C@@H]1CCC[C@H](C(C)(C)NC[C@H](O)c2cncc(F)c2)C1 [Compound 257, (R)-2-{1-[(1S,3R)-3-methoxycyclohexyl]-1-methylethylamino}-1-(5-fluoro-3-pyridyl)-1-ethanol] | < 25 | 50 to 75
25 | CO[C@H]1CC[C@@H](CCCNC[C@H](O)c2cccc(F)c2)CC1 [Compound 258, (R)-1-(m-fluorophenyl)-2-{3-[(1s,4R)-4-methoxycyclohexyl]propyl-amino}-1-ethanol] | 50 to 75 | > 75
26 | CO[C@H]1CC[C@H](CCCNC[C@H](O)c2cccc(F)c2)CC1 [Compound 259, (R)-1-(m-fluorophenyl)-2-{3-[(1r,4S)-4-methoxycyclohexyl]propyl-amino}-1-ethanol] | < 25 | 25 to 50
27 | CO[C@H]1CC[C@@H](CCCNC[C@H](O)c2cncc(F)c2)CC1 [Compound 260, (R)-1-(5-fluoro-3-pyridyl)-2-{3-[(1s,4R)-4-methoxycyclohexyl]propyl-amino}-1-ethanol] | < 25 | > 75
28 | CO[C@H]1CC[C@H](CCCNC[C@H](O)c2cncc(F)c2)CC1 [Compound 261, (R)-1-(5-fluoro-3-pyridyl)-2-{3-[(1r,4S)-4-methoxycyclohexyl]propyl-amino}-1-ethanol] | < 25 | < 25
29 | O[C@@H](CNC[C@H]1CC[C@@H](OCc2ccccc2)CC1)c1cccc(F)c1 [Compound 262, (R)-1-(m-fluorophenyl)-2-({[(1s,4S)-4-(benzyloxy)cyclohexyl]methyl}amino)-1-ethanol] | < 25 | 25 to 50
30 | O[C@@H](CNC[C@H]1CC[C@@H](OCc2ccccc2)CC1)c1cncc(F)c1 [Compound 263, (R)-1-(5-fluoro-3-pyridyl)-2-({[(1s,4S)-4-(benzyloxy)cyclohexyl]methyl}amino)-1-ethanol] | < 25 | > 75
31 | CO[C@H]1CC[C@@H](CCC(C)(C)NC[C@H](O)c2cccc(F)c2)CC1 [Compound 264, (R)-2-{1,1-dimethyl-3-[(1s,R)-4-methoxycyclohexyl]propyl-amino}-1-(m-fluorophenyl)-1-ethanol] | 25 to 50 | > 75
32 | CO[C@H]1CC[C@H](CCC(C)(C)NC[C@H](O)c2cccc(F)c2)CC1 [Compound 265, (R)-2-{1,1-dimethyl-3-[(1r,4S)-4-methoxycyclohexyl]propyl-amino}-1-(m-fluorophenyl)-1-ethanol] | < 25 | 50 to 75
33 | CO[C@H]1CC[C@@H](CCC(C)(C)NC[C@H](O)c2cncc(F)c2)CC1 [Compound 266] | < 25 | > 75
34 | CO[C@H]1CC[C@H](CCC(C)(C)NC[C@H](O)c2cncc(F)c2)CC1 [Compound 267, (R)-2-{1,1-dimethyl-3-[(1r,4S)-4-methoxycyclohexyl]propyl-amino}-1-(5-fluoro-3-pyrdiyl)-1-ethanol] | < 25 | 25 to 50
35 | O[C@@H](CNC[C@H]1CC[C@@H](O)CC1)c1cccc(F)c1 [Compound 268, (R)-1-(m-fluorophenyl)-2-({[(1s,4S)-4-hydroxycyclohexyl]meth-yl}amino)-1-ethanol] | < 25 | 25 to 50
